Entries after “also recorded” stand apart in the source; their conditions may differ.
What was measured:
[1] = test system: 15-PGDH-luciferase fusion reporter in V9m, LS174T and V503 cells; test: 15-PGDH-luciferase fusion gene reporter induction in colon cancer cell lines; type: cell-based
[2] = Hepatocyte stability; type: in vitro ADME; details: hepatocytes in culture; printed 'Stable > couple hrs' over two lines
Method: (§1) Time to inhibition refers to the time needed to inhibit the generation of NADH by 15-PGDH from the moment with drug is added into the reaction mix. Delta Tm refers to the shift in melting temperature of recombinant 15-PGDH in the presence of drug (with cofactor NADH also present). Concentration of Full Cell Line Reporter Induction refers to the concentration of drug that needs to be added to reporter cell line to achieve maximal induction of the 15-PGDH-luciferase gene fusion reporter cassette, as measured by luciferase assays. Hepatocyte stability refers to the half-life of compound in the presence of hepatocytes in culture. Toxicity refers to the concentration of compound needed to decrease cell numbers in a cell culture assay.

[3] = test system: cell culture; test: Toxicity in a cell culture assay (decrease of cell numbers); type: cell-based; details: concentration needed to decrease cell numbers in a cell culture assay
Method: as §1

[4] = test system: A549 cells; test: Cellular toxicity on A549 cells by CellTiter-Glo; type: cell-based; details: 24 hours, concentrations of up to 10 μM
Method: FIGS. 38(A-C) show assays of cellular toxicity on A549 cells at 24 hours of 15-PGDH inhibitors as assayed by CellTiter-Glo measurement.

[5] = test system: C57BL/6J mice; test: Bone marrow of C57BL/6J mice treated in vivo; set-up: species or system mouse; details: IP 5 mg/kg or 20 mg/kg
Source text: Experimental conditions are noted on the figure.

[6] = test system: lethally irradiated CD45.1 mice; test: Competitive bone marrow transplant, CD45.2 chimerism; type: in vivo, mouse
Method: On day 3 mice were sacrificed, marrow flushed and mixed at a 1:1 ratio with vehicle treated CD45.1 marrow. 2 million whole BM cells were injected into the tail vein of lethally irradiated CD45.1 mice and percent chimerism measured via flow cytometry at weeks 8, 12, 16.

[7] = test system: FVB mice; test: Liver regeneration after partial hepatectomy, FVB mice; type: in vivo, mouse
[8] = test system: FVB male mice; test: Dextran sodium sulfate (DSS) induced colitis; type: in vivo, mouse
[9] = test system: lethally irradiated mice; test: Blood and bone marrow recovery after transplant with 500,000 donor marrow cells; type: in vivo, mouse
[10] = test system: NSG mice; test: Homing of human umbilical cord blood buffy coat cells in NSG mice; type: in vivo, mouse
Method: FIG. 93 illustrates a schema of an experiment in which immune deficient NSG mice are lethally irradiated (IR) and 12 hours later receive a transplant with CFSE dye labeled buffy coat cells from human umbilical cord blood (UCB), and number of transplanted cells that home and survive in the bone marrow of the recipient mice are then determined by FACS at 16 hours post-transplant. In different arms of the experiment mice are treated with vehicle or with SW033291. Drugs are administered following radiation, following the transplant, and again at 8 hours after the transplant.

CCCC[S+]([O-])c1sc2nc(-c3cccs3)cc(-c3ccccc3)c2c1N (centres unmarked) [SW033291, 2-(butylsulfinyl)-4-phenyl-6-(thiophen-2-yl)thieno[2,3-b]pyridin-3-amine]
exposure needed for maximal reporter induction ([1]; 24 hours, three cell line backgrounds): 80 to 160 nM | luciferase activity of 15-PGDH luciferase fusion cells ([1]; V9m, LS174T, V503, various concentrations): increase luciferase activity | Hepatocyte stability [2]: couple hrs | Toxicity [3]: >10 µM | effect on CellTitre-Glo levels [4]: No effect | percent of Sca1+/c-Kit+ cells in lineage negative (SKL) cells [5]: unchanged | percent blood chimerism of CD45.2 marked cells ([6]; donor 5 mg/kg IP daily for 3 doses, weeks 12 and 16): significantly increased | contribution to B and T cell populations ([6]; week 16): significant increase in contribution to B and T cell populations | BrdU positive (S-phase) cells in liver ([7]; post-operative day 2): clear increase in numbers of BrdU positive cells | increase in median S-phase cells ([7]; post-operative day 2, P<0.05): greater than 2 fold | greater liver weight than control mice ([7]; post-operative day 7): approximately 25% | change from baseline weight ([8]; 22 days, P=0.001): greater weight at all time points | colon ulcer formation ([8]; colonoscopy days 8, 11, 15): prevents two-thirds of ulcer formation | reduction of length of ulcerated mucosa versus control ([8]; day 15, P=0.045): 61% | body weight and colon length ([8]; day 22): greater body weight and greater colon lengths | MEICS scores ([8]; days 8, 11 and 15): significantly less colitis activity | total platelet count ([9]; day 5 after transplant): significantly higher total platelet count | total white count ([9]; day 5 after transplant): significantly higher total white count | platelet count ([9]; day 8 after transplant): 77,000 platelets | neutrophil count ([9]; day 12 after transplant): 332 neutrophils | total white counts ([9]; day 12 after transplant): significantly higher total white counts; also recorded: significantly greater total white counts | lymphocyte count ([9]; day 18 after transplant): significantly higher | neutrophil count ([9]; day 18 after transplant): 835 neutrophils | platelet counts ([9]; day 18 after transplant): significantly higher platelet counts | total white count ([9]; day 18 after transplant): significantly higher total white count | increase in numbers of homed human cells in recipient bone marrow [10]: ~2 fold

Source: patent US9789116B2, “Compositions and methods of modulating short-chain dehydrogenase activity” (CASE WESTERN RESERVE UNIVERSITY, priority 2013, dated 2017)
